How the values were obtained:
[1] = test system: 41M ®; test: In vitro cytotoxicity (SRB), 41M ®; assay type: cell-based, human; conditions: 41M ® (cisplatin resistant), ovarian cancer, 48 to 96 hours
Method: (§1) Additional in vitro biological testing was conducted using cell lines derived from human carcinomas and maintained at the Institute of Cancer Research, Sutton, England (see C A Hills & colleagues, Br J Cancer 59, 527-34 (1989)). Monolayer cells were trypsinized and seeded in 96-well microtiter plates at a density of 1×10^4 cells/well in 200 μl of growth medium. Cells were incubated overnight and test compounds were added to triplicate wells at various concentrations for a total of 48 to 96 hours. For toxicity analysis after drug exposure, the cells were fixed with trichloroacetic acid and stained for cellular protein content by incubation for 30 minutes with 0.4% (wt/vol) sulforodamine B (SRB) dissolved in 1% acetic acid. The unbound dye was removed by 1% acetic acid washes, and the bound dye was extracted with 10 mM Tris buffer. The amount of dye in solution was quantified by absorbance at 564 nm.
(§2) In the Tables A and B below, all the cells are ovarian cancer cells with the exception of GCT27^R /GCT27 which are testicular. Table A gives IC50 values in μM; Table B gives Resistance Factors as a ratio of IC50 for a cell line bred to be resistant to cisplatin against IC50 for the nonresistant cell line.

[2] = test system: 41M; test: In vitro cytotoxicity (SRB), 41M; assay type: cell-based, human; conditions: ovarian cancer, 48 to 96 hours
Method: as §1, §2

[3] = test system: A2780; test: In vitro cytotoxicity (SRB), A2780; assay type: cell-based, human; conditions: A2780, ovarian cancer, 48 to 96 hours
Method: as §1, §2

[4] = test system: SKOV-3; test: In vitro cytotoxicity (SRB), SKOV-3; assay type: cell-based, human; conditions: SKOV-3, ovarian cancer, 48 to 96 hours
Method: as §1, §2

[5] = test system: CHI ®/CHI; test: Resistance factor CHI ®/CHI; assay type: cell-based, human; conditions: ratio of IC50 resistant to nonresistant line, ovarian
Method: as §1, §2

[6] = test system: CHI; test: In vitro cytotoxicity (SRB), CHI; assay type: cell-based, human; conditions: ovarian cancer, 48 to 96 hours
Method: as §1, §2

[7] = test system: CHI ®; test: In vitro cytotoxicity (SRB), CHI ®; assay type: cell-based, human; conditions: CHI ® (cisplatin resistant), ovarian cancer, 48 to 96 hours
Method: as §1, §2

[8] = test system: A2780 ®; test: In vitro cytotoxicity (SRB), A2780 ®; assay type: cell-based, human; conditions: A2780 ® (cisplatin resistant), ovarian cancer, 48 to 96 hours
Method: as §1, §2

[9] = test system: 41M ®/41M; test: Resistance factor 41M ®/41M; assay type: cell-based, human; conditions: ratio of IC50 resistant to nonresistant line, ovarian
Method: as §1, §2

[10] = test system: HX62; test: In vitro cytotoxicity (SRB), HX62; assay type: cell-based, human; conditions: HX62, ovarian cancer, 48 to 96 hours
Method: as §1, §2

[11] = test system: A2780 ®/A2780; test: Resistance factor A2780 ®/A2780; assay type: cell-based, human; conditions: ratio of IC50 resistant to nonresistant line, ovarian
Method: as §1, §2

[12] = test system: GCT27 ®/GCT27; test: Resistance factor GCT27 ®/GCT27; assay type: cell-based, human; conditions: ratio of IC50 resistant to nonresistant line, testicular
Method: as §1, §2

[13] = test system: Adj/PC6; test: In vivo Adj/PC6 tumour test in mice (LD50, ED90, therapeutic index)
Method: The Adj/PC6 testing was carried out as described by P M Goddard et al presented in Sixth NCI-EORTC Symposium on New Drugs in Cancer Therapy 1989, which is a development of the basic method described by T A Connors et al, Chem Biol Interact 5, 415(1972). The in vivo L1210 tests were conducted according to the NCI protocol, Cancer Chemotherapy Reports, Part 3, vol 2, (Sept 1972) except that the animals used were DBA/2 mice and that dosing was carried out on days 1, 5 and 9. The animals were sacrificed when moribund. The compounds were administered parenterally (ip).
In the Adj/PC6 testing, LD50 and ED90 values in mg/kg body weight were determined in the conventional manner. The therapeutic index (TI) was calculated as the ratio of LD50 to ED90, and the results are shown below.
Additional tests were carried out in vivo using the compound of Example 2, against sensitive Adj/PC6 tumour cell lines, and against tumour cell lines resistant to various platinum anti-tumour agents, and a TI (Therapeutic Index) calculated, as described above.

[14] = test system: PXN/94; test: In vitro cytotoxicity (SRB), PXN/94; assay type: cell-based, human; conditions: PXN/94, ovarian cancer, 48 to 96 hours
Method: as §1, §2

[15] = test system: Adj/PC6/iproplatin res; test: In vivo Adj/PC6 iproplatin-resistant tumour test in mice; design: key to ED90: --: indicates 90% inhibition not achieved for doses up to LD50
Method: (§3) The animals were sacrificed when moribund. The compounds were administered parenterally (ip).

[16] = test system: Adj/PC6/cisplatin res; test: In vivo Adj/PC6 cisplatin-resistant tumour test in mice; design: key to ED90: --: indicates 90% inhibition not achieved for doses up to LD50
Method: as §3

[17] = test system: OVCAR-3; test: In vivo OVCAR-3 ovarian carcinoma xenograft; design: species or system mice; conditions: tumour volume vs control
[18] = test system: OVCAR-3; test: In vivo OVCAR-3 ovarian carcinoma xenograft; design: species or system mice; conditions: delay in doubling of tumour volume vs control
Method: The "growth delay" was also measured which represents the delay in achieving a doubling of the tumour volume for the treated group compared to the control group.

[19] = test system: Adj/PC6/tetraplatin res; test: In vivo Adj/PC6 tetraplatin-resistant tumour test in mice
Method: as §3

[20] = Adj/PC6, comparison with cis-isomer

Row | Molecule | IC50 [1] [µM] | IC50 [2] [µM] | IC50 [3] [µM] | IC50 [4] [µM] | Resistance Factor CHI ®/CHI [5] | IC50 [6] [µM] | IC50 [7] [µM] | IC50 [8] [µM] | Resistance Factor 41M ®/41M [9] | IC50 [10] [µM] | Resistance Factor A2780 ®/A2780 [11] | ED90 ([13]; Adj/PC6 testing, mice, ip) [mg/kg body weight] | LD50 ([13]; Adj/PC6 testing, mice, ip) [mg/kg body weight] | TI (therapeutic index, ratio of LD50 to ED90) ([13]; Adj/PC6 testing, mice, ip) | IC50 [14] [µM] | other results
1 | [NH2][Pt]([OH])([OH])([Cl])([Cl])[NH]Cc1ccccc1 [B, t[PtCl2 (OH2)NH3 (PhCH2 NH2)]] | 1.35 | 1.3 | 1.06 | 8.2 | 1.7 | 1.12 | 1.95 | 4.2 | 1.0 | 10.2 | 4.0 |  |  |  |  | 
2 | N.N.[Cl][Pt][Cl] [Cisplatin, cis-[PtCl2 (NH3)2], reference compound] |  |  |  |  | 6.4 |  |  |  | 4.7 |  | 15.7 |  |  |  |  | Resistance Factor GCT27 ®/GCT27 [12]: 6.2
3 | [NH2][Pt]([OH])([OH])([Cl])([Cl])[NH]C1CCCC1 [EX 1, trans-[PtCl2 (OH)2 (NH3)(c-C5 H9 NH2)]] | 1.3 | 1.1 | 0.95 | 7 | 1.7 | 1.15 | 1.9 | 5.2 | 1.2 | 10.2 | 5.5 |  |  |  |  | 
4 | CC(C)[NH][Pt]([NH2])([OH])([OH])([Cl])[Cl] [EX 3, trans-[PtCl2 (OH)2 (NH3)((CH3)2 CHNH2)]] | 4.6 | 3.2 |  | 9.2 | 2.3 | 2.4 | 5.5 |  | 1.4 | 14 |  | 10.5 | 18 | 1.7 | 8.3 | 
5 | CC(C)(C)[NH][Pt]([NH2])([OH])([OH])([Cl])[Cl] [EX 4, trans-[PtCl2 (OH)2 NH3 (t-C4 H9 NH2)]] | 0.9 | 1.1 |  | 4.7 | 2.2 | 0.74 | 1.6 |  | 0.8 | 1.8 |  | 4.7 | 35 | 7.4 | 3 | 
6 | C[NH][Pt]([NH2])([OH])([OH])([Cl])[Cl] [EX 6, trans-[PtCl2 (OH)2 NH3 (MeNH2)]] | 33 | 5.4 | 6.2 | 72 | 2.4 | 12.5 | 30.5 | 64 | 6.1 | 110 | 10.3 |  |  |  |  | 
7 | [NH2][Pt]([OH])([OH])([Cl])([Cl])[N]1CCOCC1 [EX 7, trans-[PtCl2 (OH)2 NH3 (morpholine)]] | 54 | 26 | 10.9 | 47 | 1.6 | 17.3 | 28.3 | 47 | 2.1 | 100 |  | 94 | 82 | < 1 | 50 | 
8 | CC[N](CC)[Pt]([NH2])([OH])([OH])([Cl])[Cl] [EX 10, t-[PtCl2 (OH)2 NH3 (Et2 NH)]] | 0.8 | 1.8 | 1.9 | 12.1 |  | 3.3 | 4.6 | 11.6 |  | 3.2 |  |  |  |  |  | 
9 | C1CN2CCC1CC2.[NH2][Pt]([OH])([OH])([Cl])[Cl] [EX 11, t-[PtCl2 (OH)2 NH3 (quinuclidine)]] | 9.5 | 14.4 | 3.2 | 27 |  | 10.2 | 14.3 | 16 |  | 40 |  |  |  |  |  | 
10 | ctc[PtCl2 (OH) NH3(c-C6 H11 NH2)] [Cis-isomer, reference compound] |  |  |  |  |  |  |  |  |  |  |  |  |  |  |  | ED90 [15]: --; LD50 [15]: 8.8 mg/kg; ED90 [16]: --; LD50 [16]: 8.8 mg/kg; T/C (day 28) ([17]; 2 mg/kg): 0.636; T/C (day 28) ([17]; 4 mg/kg): 0.427; T/C (day 28) ([17]; 8 mg/kg): 0.599; ED90 [13, 20]: 1.4 mg/kg; LD50 [13, 20]: 17.5 mg/kg; TI (Therapeutic Index) [13, 20]: 13; Growth Delay ([18]; 2 mg/kg): 4.3 days; Growth Delay ([18]; 4 mg/kg): 15.2 days; Growth Delay ([18]; 8 mg/kg): 5.5 days; ED90 [19]: 12 mg/kg; LD50 [19]: > 12.5 mg/kg; TI (Therapeutic Index) [19]: > 1
11 | t-[PtCl2 (OH)2 NH3 (exo-2-aminonorbornane)] | 1.47 | 1.4 |  | 4.4 | 1.2 | 1.4 | 1.7 |  | 1.0 | 5.6 |  | < 6.25 | 15.5 | > 2.5 | 3.2 | 
12 | trans-[PtCl2 (OH)2 NH3 (C10 H21 NH2)] [EX 8] | 5.3 | 12 | 2.9 | 25 |  | 14 | 14.6 | 14.1 |  | 23 |  |  |  |  |  | 
